From ChEMBL document CHEMBL1201862, “PubChem BioAssay data set” (2004)
The source made the active and inactive calls.

Legend:
[1] = Luminescent dose response cell-based high throughput screening assay for inhibitors of the Janus kinase 2 mutant JAK2V617F. [Related pubchem assays: 1446 (Primary screen.), 1521 (Confirmation assay.), 1486 (Counter screen.)]; type: functional
HEK293 = experiment: Fluorescence-based counterscreen for potentiators or agonists of NPY-Y2: cell-based high-throughput dose response assay to identify inhibitors of cyclic nucleotide gated ion channel (CNGC) activity. In this assay, the parental HEK293 cell line transfected with a cyclic-nucleotide gated ion channel (CNGC)-based cAMP sensor is used to measure inhibition of isoproterenol-induced CNGC activity by test compound.; type: functional; settings: Homo sapiens;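 also: stimulus is 1 µM isoproterenol at EC100 plus PDE inhibitor Ro 20-1724 at 25 µM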
[2] = molecular target: T1, Replicative DNA helicase DnaB (Mycobacterium tuberculosis, UniProt P9WMR3); experiment: DnaB intein splicing inhibitors, dose response, biochemical, cell-free fluorescence (AID 449749); type: functional
T1 sequence (P9WMR3 whole entry): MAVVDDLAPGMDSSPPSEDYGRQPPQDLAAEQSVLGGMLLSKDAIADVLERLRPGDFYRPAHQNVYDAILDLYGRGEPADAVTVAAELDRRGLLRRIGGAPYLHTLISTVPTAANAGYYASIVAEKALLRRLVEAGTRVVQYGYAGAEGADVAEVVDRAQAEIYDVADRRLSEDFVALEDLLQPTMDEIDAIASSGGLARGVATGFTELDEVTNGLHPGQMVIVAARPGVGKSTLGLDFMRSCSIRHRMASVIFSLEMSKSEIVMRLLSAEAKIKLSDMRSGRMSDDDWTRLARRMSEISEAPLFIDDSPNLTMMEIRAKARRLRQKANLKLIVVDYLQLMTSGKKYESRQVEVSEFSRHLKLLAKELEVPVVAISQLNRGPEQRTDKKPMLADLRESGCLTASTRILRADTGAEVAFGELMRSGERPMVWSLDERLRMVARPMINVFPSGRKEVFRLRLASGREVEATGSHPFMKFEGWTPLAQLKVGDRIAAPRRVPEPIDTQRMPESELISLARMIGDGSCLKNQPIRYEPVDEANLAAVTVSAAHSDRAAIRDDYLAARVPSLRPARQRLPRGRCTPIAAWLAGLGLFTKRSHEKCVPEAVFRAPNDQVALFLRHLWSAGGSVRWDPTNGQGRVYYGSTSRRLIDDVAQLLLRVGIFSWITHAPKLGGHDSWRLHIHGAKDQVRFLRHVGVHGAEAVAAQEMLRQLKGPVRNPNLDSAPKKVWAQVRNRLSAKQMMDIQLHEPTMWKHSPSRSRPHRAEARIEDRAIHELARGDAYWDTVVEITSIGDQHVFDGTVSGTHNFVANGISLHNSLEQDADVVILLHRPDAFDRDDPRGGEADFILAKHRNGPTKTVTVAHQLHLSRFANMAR

[3] = molecular target: T2, Neuropeptide Y receptor type 1 (Homo sapiens, UniProt P25929); experiment: Fluorescence-based counterscreen for agonists of NPY-Y2: cell-based high-throughput dose response assay for agonists of NPY-Y1.; type: functional
T2 sequence (P25929 whole entry): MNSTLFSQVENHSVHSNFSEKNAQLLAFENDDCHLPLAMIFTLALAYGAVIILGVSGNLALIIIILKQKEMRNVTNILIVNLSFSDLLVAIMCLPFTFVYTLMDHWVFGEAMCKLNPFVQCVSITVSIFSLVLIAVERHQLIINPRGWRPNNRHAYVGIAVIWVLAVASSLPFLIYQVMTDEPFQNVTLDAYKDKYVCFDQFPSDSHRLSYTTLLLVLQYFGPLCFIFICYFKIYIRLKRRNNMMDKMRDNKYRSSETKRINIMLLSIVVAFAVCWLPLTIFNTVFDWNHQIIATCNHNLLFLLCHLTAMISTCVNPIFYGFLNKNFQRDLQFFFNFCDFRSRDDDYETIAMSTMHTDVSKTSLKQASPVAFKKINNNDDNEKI

[4] = molecular target: T3, Neuropeptide Y receptor type 2 (Homo sapiens, UniProt P49146); experiment: Fluorescence-based cell-based high-throughput dose response assay for agonists of NPY-Y2. [Related pubchem assays: 1703 (Screening assay (CNGC inhibitors).), 1359 (Screening assay (NPY-Y2 potentiators or agonists).), 1304 (Screening assay (NPY-Y1 potentiators or agonists).), 1710 (Screening assay (NPY-Y2 agonists).), 1791 (Summary AID.)]; type: functional
T3 sequence (P49146 whole entry): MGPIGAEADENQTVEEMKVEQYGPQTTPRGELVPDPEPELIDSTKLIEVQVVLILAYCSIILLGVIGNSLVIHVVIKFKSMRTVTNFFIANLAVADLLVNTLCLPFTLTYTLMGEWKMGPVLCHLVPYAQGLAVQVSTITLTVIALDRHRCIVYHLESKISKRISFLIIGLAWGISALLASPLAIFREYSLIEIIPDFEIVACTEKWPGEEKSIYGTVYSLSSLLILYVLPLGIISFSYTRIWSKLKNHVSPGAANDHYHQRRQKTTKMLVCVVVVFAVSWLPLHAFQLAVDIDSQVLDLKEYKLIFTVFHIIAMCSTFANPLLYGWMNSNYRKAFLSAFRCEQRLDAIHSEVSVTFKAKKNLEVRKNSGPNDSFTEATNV

Protein RecA = molecular target: T4, Protein RecA (Mycobacterium tuberculosis, UniProt P9WHJ3); experiment: Fluorescence Cell-Free Homogeneous Dose Retest to Identify Inhibitors of RecA-Intein Splicing Activity. [Related pubchem assays (depositor defined):AID2097, AID2223, AID489010, AID492950]; type: functional
T4 sequence (P9WHJ3 whole entry): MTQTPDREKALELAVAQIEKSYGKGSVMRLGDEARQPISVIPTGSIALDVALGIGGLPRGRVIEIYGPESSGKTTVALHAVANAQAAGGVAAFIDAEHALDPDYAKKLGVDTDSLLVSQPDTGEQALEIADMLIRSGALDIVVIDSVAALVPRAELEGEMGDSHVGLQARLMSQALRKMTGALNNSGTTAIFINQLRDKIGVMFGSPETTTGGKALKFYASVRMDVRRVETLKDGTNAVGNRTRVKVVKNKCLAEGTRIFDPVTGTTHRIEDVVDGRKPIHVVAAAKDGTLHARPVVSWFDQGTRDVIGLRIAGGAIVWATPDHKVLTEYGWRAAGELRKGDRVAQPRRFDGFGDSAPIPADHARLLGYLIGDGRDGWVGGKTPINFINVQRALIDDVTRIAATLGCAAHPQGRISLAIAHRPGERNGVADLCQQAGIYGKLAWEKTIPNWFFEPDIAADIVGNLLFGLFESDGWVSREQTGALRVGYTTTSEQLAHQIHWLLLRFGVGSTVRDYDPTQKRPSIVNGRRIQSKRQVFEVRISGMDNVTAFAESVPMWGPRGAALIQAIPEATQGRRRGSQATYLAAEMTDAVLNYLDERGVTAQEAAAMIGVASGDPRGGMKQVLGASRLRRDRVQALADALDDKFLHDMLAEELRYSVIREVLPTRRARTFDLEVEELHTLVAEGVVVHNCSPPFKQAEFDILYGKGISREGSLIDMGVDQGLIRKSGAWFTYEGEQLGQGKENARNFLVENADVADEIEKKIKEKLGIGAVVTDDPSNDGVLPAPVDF

[5] = molecular target: T5, High affinity choline transporter 1 (Homo sapiens, UniProt Q9GZV3); experiment: CHT inhibitors, dose response, cell-based, 10-point CRC, membrane potential dye (AID 588401); type: functional;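 also: membrane potential dye fluorescence of choline-evoked depolarization via CHT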
T5 sequence (Q9GZV3 whole entry): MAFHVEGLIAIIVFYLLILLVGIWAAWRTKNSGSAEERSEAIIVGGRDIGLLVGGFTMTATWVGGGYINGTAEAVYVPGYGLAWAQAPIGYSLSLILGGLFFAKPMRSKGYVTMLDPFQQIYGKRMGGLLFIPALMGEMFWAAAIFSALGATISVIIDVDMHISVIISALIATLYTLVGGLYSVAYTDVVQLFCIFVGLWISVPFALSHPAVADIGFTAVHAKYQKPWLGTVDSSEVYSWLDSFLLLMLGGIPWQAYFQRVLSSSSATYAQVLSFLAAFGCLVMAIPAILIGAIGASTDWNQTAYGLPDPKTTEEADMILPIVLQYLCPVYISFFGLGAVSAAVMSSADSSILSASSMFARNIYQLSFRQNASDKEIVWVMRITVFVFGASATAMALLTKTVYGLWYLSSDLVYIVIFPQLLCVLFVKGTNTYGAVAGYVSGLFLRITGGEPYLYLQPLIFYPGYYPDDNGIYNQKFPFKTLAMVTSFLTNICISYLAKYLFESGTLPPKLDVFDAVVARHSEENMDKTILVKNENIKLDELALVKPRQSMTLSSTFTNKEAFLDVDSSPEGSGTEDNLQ

[6] = Shn3 3'UTR reporter inhibitors, dose response, cell-based, Clone20 osteoblasts, firefly luciferase, cherry-picked (AID 624132); type: functional;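 also: firefly luciferase luminescence from reporter carrying the Shn3 3'UTR in osteoblasts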
[7] = molecular target: T5, High affinity choline transporter 1; experiment: CHT inhibitors, dose response, cell-based, 5-point CRC, membrane potential dye (AID 504840); type: functional
[8] = molecular target: Potassium voltage-gated channel subfamily KQT member 2 (Rattus norvegicus, UniProt O88943, W236L); experiment: KCNQ2 channel potentiators, dose response, mechanism study for KCNQ2 potentiator project, cell-based, automated electrophysiology (AID 2603); type: functional
Vero = Vero cell cytotoxicity, cytotoxicity control for flavivirus capping enzyme inhibitors (AID 588742); type: functional; settings: Chlorocebus sabaeus
[9] = control 3'UTR Renilla luciferase suppression, dose response, counter-screen for Shn3 inhibitor project, cell-based, Clone20-Shn3RL, cherry-picked (AID 624133); type: functional
[10] = A Cell Based Secondary Assay To Explore Cytotoxicity of Compounds that Sensitize Mycobacterium Tuberculosis to Beta-Lactam Antibiotics.; type: functional
[11] = molecular target: T6, Polyadenylate-binding protein 1 (Homo sapiens, UniProt P11940); experiment: PABP1 MLLE–PAM2 binding inhibitor potency, dose response, biochemical, fluorescence polarization, FITC-PAM2 peptide (AID 602259); type: functional; settings: read-out: IC50_Mean
[12] = molecular target: T6, Polyadenylate-binding protein 1; experiment: PABP1 MLLE–PAM2 interaction inhibitors, dose response, miRNA deadenylation inhibitor project, biochemical, fluorescence polarization, Cy5-PAM2 peptide, secondary (AID 602260); type: functional; settings: read-out: IC50_Mean
[13] = Luminescence Cell-Based Dose Response to Identify Activators of 5'UTR Stem-Loop Driven Prion Protein mRNA Translation in H4-C Neuroglioblastoma Cells. [Related pubchem assays: 1829 (Project Summary), 1814 (Primary HTS)]; type: functional
[14] = Luminescence Cell-Based Dose Response HTS to Identify Activators of Luciferase Translation or Activity in H4 […] Cells. [Related pubchem assays: 1829 (Project Summary), 1814 (Primary HTS)]; type: functional
[15] = Luminescence Cell-Based Dose Response to Identify Activators of Luciferase Translation or Activity in H4-C Neuroglioblastoma Cells. [Related pubchem assays: 1829 (Project Summary), 1814 (Primary HTS)]; type: functional
[16] = Luminescence Cell-Based Dose Confirmation to Identify Activators of 5'UTR Stem-Loop Driven Alpha-Synuclein mRNA Translation in H4 Neuroglioblastoma Cells. [Related pubchem assays: 1829 (Project Summary), 1814 (Primary HTS)]; type: functional
H4 = experiment: Luminescence Cell-Based Dose Response HTS to Identify Activators of 5'UTR Stem-Loop Driven Prion Protein mRNA Translation in H4 Neuroglioblastoma Cells. [Related pubchem assays: 1829 (Project Summary), 1814 (Primary HTS)]; type: functional; settings: Homo sapiens
[17] = molecular target: T7, Microphthalmia-associated transcription factor (Homo sapiens, UniProt O75030); experiment: TRPM1 promoter luciferase signal decrease, dose response, MITF inhibitor project, cell-based, SK-MEL-5, cherry-picked, set 3 (AID 493073); type: functional
T7 sequence (O75030 whole entry): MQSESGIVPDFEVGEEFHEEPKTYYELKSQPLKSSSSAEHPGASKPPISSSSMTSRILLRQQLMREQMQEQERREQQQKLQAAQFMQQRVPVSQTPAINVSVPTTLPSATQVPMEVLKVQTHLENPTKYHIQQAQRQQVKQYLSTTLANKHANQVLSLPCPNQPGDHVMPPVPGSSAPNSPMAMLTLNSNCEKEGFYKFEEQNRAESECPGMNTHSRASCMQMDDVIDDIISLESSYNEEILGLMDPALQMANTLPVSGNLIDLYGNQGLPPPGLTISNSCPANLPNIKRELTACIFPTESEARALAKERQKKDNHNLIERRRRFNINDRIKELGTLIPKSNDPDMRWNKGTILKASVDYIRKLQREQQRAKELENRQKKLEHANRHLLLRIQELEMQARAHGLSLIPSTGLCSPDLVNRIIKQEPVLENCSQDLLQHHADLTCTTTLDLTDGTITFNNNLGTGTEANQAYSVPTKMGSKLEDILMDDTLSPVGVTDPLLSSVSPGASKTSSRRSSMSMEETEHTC

HT-1080 = experiment: cytotoxicity in HT1080 fibrosarcoma cells, cell-based, fluorescence readout (AID 620); type: functional; settings: Homo sapiens
[18] = molecular target: Luciferin 4-monooxygenase (Photinus pyralis, UniProt P08659); experiment: Counter Screen for Luciferase-based Assay Positives. [Related pubchem assays: 620, 618, 411 ]
Luciferin 4-monooxygenase, sequence (P08659 whole entry): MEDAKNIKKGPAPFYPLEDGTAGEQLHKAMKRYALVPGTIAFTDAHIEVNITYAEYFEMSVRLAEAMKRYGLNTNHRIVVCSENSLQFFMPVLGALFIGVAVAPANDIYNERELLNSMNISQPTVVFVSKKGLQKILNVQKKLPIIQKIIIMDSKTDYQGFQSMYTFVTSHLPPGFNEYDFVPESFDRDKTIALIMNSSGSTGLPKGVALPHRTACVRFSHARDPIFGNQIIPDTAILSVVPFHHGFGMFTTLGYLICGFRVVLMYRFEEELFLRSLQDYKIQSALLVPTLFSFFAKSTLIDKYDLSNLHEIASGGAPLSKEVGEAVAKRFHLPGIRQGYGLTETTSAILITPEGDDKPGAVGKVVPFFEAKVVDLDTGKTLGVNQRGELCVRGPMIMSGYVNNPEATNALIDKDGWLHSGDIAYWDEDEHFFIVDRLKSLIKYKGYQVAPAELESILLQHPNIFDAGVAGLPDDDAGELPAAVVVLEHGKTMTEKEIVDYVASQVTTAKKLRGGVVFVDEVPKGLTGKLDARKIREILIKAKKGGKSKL

T6 sequence (P11940 whole entry): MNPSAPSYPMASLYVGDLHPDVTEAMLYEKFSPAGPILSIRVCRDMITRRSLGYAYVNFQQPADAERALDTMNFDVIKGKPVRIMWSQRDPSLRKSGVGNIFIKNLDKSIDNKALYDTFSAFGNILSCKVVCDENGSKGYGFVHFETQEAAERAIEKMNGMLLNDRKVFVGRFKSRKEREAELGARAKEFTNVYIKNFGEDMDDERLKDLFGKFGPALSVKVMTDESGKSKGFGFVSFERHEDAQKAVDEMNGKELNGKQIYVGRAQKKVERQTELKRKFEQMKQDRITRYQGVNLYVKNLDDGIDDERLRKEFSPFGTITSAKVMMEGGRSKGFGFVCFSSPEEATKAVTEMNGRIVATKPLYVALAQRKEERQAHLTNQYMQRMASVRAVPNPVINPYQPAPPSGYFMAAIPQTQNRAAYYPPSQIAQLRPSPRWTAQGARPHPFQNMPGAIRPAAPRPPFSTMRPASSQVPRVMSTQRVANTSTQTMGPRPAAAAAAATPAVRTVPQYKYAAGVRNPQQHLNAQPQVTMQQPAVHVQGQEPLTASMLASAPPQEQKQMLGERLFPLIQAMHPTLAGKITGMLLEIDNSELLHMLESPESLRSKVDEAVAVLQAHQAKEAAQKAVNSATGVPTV
Potassium voltage-gated channel subfamily KQT member 2, sequence (O88943 whole entry W236L): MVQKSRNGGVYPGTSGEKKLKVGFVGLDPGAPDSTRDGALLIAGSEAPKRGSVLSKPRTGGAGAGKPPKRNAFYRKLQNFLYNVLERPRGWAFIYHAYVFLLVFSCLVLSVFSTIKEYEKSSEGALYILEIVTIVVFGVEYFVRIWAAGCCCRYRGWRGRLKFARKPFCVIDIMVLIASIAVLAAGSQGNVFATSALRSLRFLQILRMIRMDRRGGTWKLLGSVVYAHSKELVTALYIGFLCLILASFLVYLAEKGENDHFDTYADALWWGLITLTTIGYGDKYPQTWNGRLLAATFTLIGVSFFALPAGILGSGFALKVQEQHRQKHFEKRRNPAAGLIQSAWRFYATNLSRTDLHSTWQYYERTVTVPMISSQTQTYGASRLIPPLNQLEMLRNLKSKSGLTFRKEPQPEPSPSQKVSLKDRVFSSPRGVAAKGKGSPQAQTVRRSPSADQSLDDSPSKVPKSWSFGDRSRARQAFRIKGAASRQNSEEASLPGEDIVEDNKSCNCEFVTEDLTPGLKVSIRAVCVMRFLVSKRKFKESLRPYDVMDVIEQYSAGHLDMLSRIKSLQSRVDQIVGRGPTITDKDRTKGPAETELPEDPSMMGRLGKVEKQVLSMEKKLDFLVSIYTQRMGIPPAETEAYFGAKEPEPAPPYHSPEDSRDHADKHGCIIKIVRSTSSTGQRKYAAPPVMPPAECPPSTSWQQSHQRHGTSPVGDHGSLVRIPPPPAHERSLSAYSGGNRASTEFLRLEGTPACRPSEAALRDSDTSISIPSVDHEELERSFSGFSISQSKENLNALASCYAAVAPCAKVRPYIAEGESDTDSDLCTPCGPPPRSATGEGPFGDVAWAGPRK

Structure (SMILES): O=C(CCl)NC(=O)NC12CC3CC(CC(C3)C1)C2
- IC50 [1]: 0.87 µM (active)
- EC50 (HEK293): > 35.4 µM (not active)
- AC50 [2]: 12 µM (active)
- EC50 [3]: > 35.4 µM (not active)
- EC50 [4]: > 35.4 µM (not active)
- EC50 (Protein RecA): 5.47 µM (active)

Structure (SMILES): Cc1ccc(CS(=O)(=O)c2ncc(Cl)c(C(=O)Nc3nnc(C)s3)n2)cc1
- IC50 [5]: 3.98 µM (active)
- AC50 [6]: 0.639 µM (active)
- IC50 [7]: 4.05 µM (active)
- EC50 [8]: 5.4 µM (active)
- CC50 (Vero): 17.4 µM (active)
- AC50 [2]: 14.2 µM (active)
- AC50 [9]: 6.75 µM (active)
- EC50 (Protein RecA): 16 µM (active)

Structure (SMILES): N#C/C(=C(/O)COC(=O)CCc1ccc(S(=O)(=O)N2CCOCC2)cc1)c1nc2ccccc2[nH]1
- CC50 [10]: > 40 µM (active)

Structure (SMILES): CCC(=O)N1CCN(c2ccc(NC(=S)NC(=O)c3ccc(OC)c([N+](=O)[O-])c3)cc2)CC1
- IC50 [11]: > 66 µM (inactive)
- CC50 [10]: > 40 µM (active)
- IC50 [12]: > 66 µM (inactive)

Structure (SMILES): Cc1nn(-c2nc3ccccc3s2)c(N)c1-c1ccccc1
- EC50 [13]: 0.346 µM (active)
- EC50 [14]: < 0.1 µM (active)
- EC50 [15]: 1.66 µM (active)
- EC50 [16]: 0.277 µM (active)
- EC50 (H4): > 120 µM (not active)

Structure (SMILES): COc1ccc(/C(O)=C\C=N\c2ccccn2)cc1
- AC50 [17]: 3.72 µM (active)
- EC50 (HT-1080): > 50 µM (not active)
- EC50 [18]: 73.2 µM (active)

Structure (SMILES): Cc1ccc(NC(=O)c2ccc3c(c2)OCCO3)cc1
- EC50 (HT-1080): > 50 µM (not active)
- EC50 [18]: 0.81 µM (active)
